These results are taken from article PMC8171087, “Pharmacological inhibition of noncanonical EED-EZH2 signaling overcomes chemoresistance in prostate cancer” (Theranostics, 2021).

The experiment addresses embryonic ectoderm development (EED) (Homo sapiens, UniProt O75530).

embryonic ectoderm development (EED), sequence (O75530 2-441): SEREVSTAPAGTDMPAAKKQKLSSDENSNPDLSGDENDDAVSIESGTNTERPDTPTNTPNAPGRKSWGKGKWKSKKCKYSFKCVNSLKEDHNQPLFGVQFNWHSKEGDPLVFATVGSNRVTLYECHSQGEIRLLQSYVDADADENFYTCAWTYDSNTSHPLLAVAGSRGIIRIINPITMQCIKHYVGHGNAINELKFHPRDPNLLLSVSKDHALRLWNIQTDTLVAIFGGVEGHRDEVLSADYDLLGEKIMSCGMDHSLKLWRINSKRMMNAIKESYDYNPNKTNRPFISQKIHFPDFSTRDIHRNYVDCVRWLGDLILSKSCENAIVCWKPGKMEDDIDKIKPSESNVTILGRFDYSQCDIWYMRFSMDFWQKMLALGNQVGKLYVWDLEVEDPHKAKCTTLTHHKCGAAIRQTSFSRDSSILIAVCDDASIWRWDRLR

The term Kd denotes the concentration at which binding is half-saturated. A low value points to a tighter complex. As to `CCOP(=O)(OCC)C(NC(=O)[C@H](Cc1ccc(-c2ccccc2)cc1)NC(=O)/C=C/c1ccc(-c2ccccc2)cc1)P(=O)(OCC)OCC` [LG1980], the Kd was determined as 2710 nM.
